According to PMC11952234, “Functional profiling of synthetic camel milk-derived peptides with implication in glucose transport and diabetes” (PLOS One, 2025):
Marks after values point to notes of the source that are not given here.

Legend:
[1] = system: insulin receptor (IR); insulin-induced IR-Rluc/IRS1-YFP BRET in HEK293 cells; test: BRET assay of IR activation, peptides combined with insulin; type: cell-based, human
Method: (§1) HepG2 and HEK293 cells were maintained at 37°C, 5% CO2 in complete RPMI and Dulbecco’s modified Eagle’s medium (DMEM), respectively, containing 0.3 mg/ml glutamine, 100 IU/ml penicillin, and 100 µg/ml streptomycin) supplemented with 10% fetal calf serum (Gibco, Carlsbad, CA, USA). The transient transfection in HEK293 cells was carried out in 75 cm flask containing 10^7 cells using Lipofectamine 2000 and 5 µg of IR-Rluc and 5 µg of IRS1-YFP (for BRET and phosphorylation experiments) as previously described. All assays were performed 48 hours post-transfection.
(§2) BRET technology was used for IR activation and its interaction with IRS1 as previously described. […] Following treatments, 10 μl of Coelenterazine h was added to a final concentration of 5 µ M and BRET measurements were carried out using the Tristar 2 multi-label plate reader (Berthold, Germany), allowing luminescence recording and signal integration at 480 nm and 540 nm.
For BRET, the data were normalized by taking as 100% of the maximal insulin-induced BRET signal in the vehicle and analyzed using GraphPad Prism software (San Diego, CA, USA). Statistical analyses were performed statistical significance between the different treatments and conditions as indicated in the figures and tables and their captions. […] The significance is indicated in the figures by stars (****p-value < 0.0001, ***p-value < 0.001, ** p-value < 0.01, * p-value < 0.05), and the absence of stars means non-significant (p-value > 0.05). However, the two-way ANOVA was used for multiple comparisons to determine the statistical significance between the different peptides when compared to each other in the different assays as described in the tables. In this case, the different letters indicate statistically significant effects (p-value < 0.05), while the same letters indicate no significant difference between the different treatments compared to each other.

[2] = system: IR phosphorylation (pIR-Tyr1334) in HepG2 cells; test: IR phosphorylation by western blot in HepG2 cells; type: cell-based, human; conditions: 0.1 mg/ml peptide, 10 minutes, 37°C, 3 independent experiments
Method: (§3) Following treatment, cells were then lysed with RIPA lysis buffer and thereafter centrifuged at 12000 × g for 30 minutes. Thereafter, the extracted cell lysate proteins were quantified using the bicinchoninic acid (BCA) protein assay. To examine the phosphorylation status of IR and AKT, 30-40 μg of proteins were loaded on 10% SDS-PAGE gel followed by western blot using the following antibodies: the mouse monoclonal anti-phospho-IR (pIR-Tyr1334)(1:1000 dilution) and the mouse monoclonal anti-phospho-AKT (pAKT-S473)(1:2000 dilution) as previously described. The corresponding total proteins loaded were also analyzed in parallel using the specific antibodies against the native forms of the different proteins. Densitometry analysis of the different western blots was performed using Image Studio Version 5.2 software from LICOR (Lincoln, Nebraska, USA).

[3] = system: AKT phosphorylation (pAKT-S473) in HepG2 cells; test: AKT phosphorylation by western blot in HepG2 cells; type: cell-based, human; conditions: 0.1 mg/ml peptide, 10 minutes, 37°C, 3 independent experiments
Method: as §3

[4] = biological target: T1, insulin receptor (IR); interaction of IR-Rluc with IRS1-YFP in HEK293 cells (Homo sapiens, UniProt P06213); test: BRET assay of IR activation (IR-Rluc/IRS1-YFP), single treatment, dose-response; type: cell-based; conditions: for BRET, % of the maximal response of insulin, Average: HEK293, 1 hour, minimal data set for Figure 1, average
T1 construct: expressed in transfected cells; host or cells: HEK293 cells, transient co-transfection; plasmids provided by Dr. Tarik Issad (Cochin Institute, Paris)
Method: as §1, §2
Statistical analyses were performed statistical significance between the different treatments and conditions as indicated in the figures and tables and their captions. […] The significance is indicated in the figures by stars (****p-value < 0.0001, ***p-value < 0.001, ** p-value < 0.01, * p-value < 0.05), and the absence of stars means non-significant (p-value > 0.05). However, the two-way ANOVA was used for multiple comparisons to determine the statistical significance between the different peptides when compared to each other in the different assays as described in the tables.

HepG2 cells = test: Glucose uptake assay (Glucose Uptake-Glo) in HepG2 cells; type: cell-based, human; conditions: 1 hour, 37°C
Method: Glucose uptake in HepG2 cells was carried out using Glucose Uptake-Glo Assay (Promega). For this, cells seeded in a 96-well white plate (50,000 cells/well) were first washed with PBS and starved in phenol red-, glucose-, and serum-free medium (Dulbecco’s modified Eagle’s medium containing 0.01 mM HEPES, 0.3 mg/ml glutamine, 100 IU/ml penicillin, and 100 µg/ml streptomycin). […] The treatment was removed, and the cells were washed once with PBS and then incubated with 50 μL/well of freshly prepared 2-deoxyglucose (500 μM) for 10 minutes at room temperature. The uptake process was stopped and neutralized, followed by the addition of 50 μl/well of 2-deoxyglucose-6-phosphate (2DG6P) detection reagent and incubation for 15-60 minutes at room temperature. The glucose-6-phosphate dehydrogenase (G6PDH) oxidizes 2DG6P to 6-phosphodeoxygluconate (6PDG) and reduces NADP + to NADPH. The reductase uses NADPH to convert the proluciferin to luciferin, which is then used by Ultra-Glo™ recombinant luciferase to produce luminescence. This luminescence, proportional to the amount of 2-deoxyglucose transported inside the cells upon treatment, was then measured using a 0.3–1 second integration on GloMax® Discover luminometer according to Glucose Uptake-Glo™ protocol.

T1 sequence (P06213 28-758 limits assumed): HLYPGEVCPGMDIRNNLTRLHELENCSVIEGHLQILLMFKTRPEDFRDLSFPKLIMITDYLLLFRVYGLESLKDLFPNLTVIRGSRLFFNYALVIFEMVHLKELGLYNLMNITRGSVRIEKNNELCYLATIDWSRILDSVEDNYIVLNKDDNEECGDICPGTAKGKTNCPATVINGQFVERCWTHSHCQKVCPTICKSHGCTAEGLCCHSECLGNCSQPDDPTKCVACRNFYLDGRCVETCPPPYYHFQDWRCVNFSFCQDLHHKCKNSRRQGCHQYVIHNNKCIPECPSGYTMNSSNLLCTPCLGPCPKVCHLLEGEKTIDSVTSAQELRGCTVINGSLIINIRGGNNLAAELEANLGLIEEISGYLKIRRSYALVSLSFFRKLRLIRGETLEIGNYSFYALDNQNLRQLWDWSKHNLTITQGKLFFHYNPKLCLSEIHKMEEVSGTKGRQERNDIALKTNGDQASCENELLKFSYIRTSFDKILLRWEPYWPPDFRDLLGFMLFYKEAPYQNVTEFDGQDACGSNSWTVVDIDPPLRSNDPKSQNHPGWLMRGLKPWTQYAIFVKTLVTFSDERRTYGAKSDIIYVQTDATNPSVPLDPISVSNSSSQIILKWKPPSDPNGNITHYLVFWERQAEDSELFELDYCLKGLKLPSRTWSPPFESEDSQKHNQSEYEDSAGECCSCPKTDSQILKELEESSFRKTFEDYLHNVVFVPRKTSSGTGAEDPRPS
T1 sequence (P06213 763-1382 limits assumed): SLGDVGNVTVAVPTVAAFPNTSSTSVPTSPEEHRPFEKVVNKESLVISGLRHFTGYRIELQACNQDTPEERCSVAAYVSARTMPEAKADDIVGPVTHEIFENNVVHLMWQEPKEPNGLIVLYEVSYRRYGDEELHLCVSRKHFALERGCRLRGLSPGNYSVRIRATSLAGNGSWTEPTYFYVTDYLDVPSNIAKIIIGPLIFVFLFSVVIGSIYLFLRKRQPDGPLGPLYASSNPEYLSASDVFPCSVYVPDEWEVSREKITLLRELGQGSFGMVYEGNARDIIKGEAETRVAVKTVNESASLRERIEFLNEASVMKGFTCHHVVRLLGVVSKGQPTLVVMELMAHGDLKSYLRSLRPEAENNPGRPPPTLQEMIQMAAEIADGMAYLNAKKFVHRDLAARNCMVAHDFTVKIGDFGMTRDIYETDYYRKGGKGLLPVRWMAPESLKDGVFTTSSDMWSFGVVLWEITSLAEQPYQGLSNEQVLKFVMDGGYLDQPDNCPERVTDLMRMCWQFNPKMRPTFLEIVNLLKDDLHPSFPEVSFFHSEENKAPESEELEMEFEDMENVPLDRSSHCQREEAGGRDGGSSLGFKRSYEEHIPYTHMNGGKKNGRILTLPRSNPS

% of maximal BRET ([4]; HEK293 cells co-expressing IR-Rluc and IRS1-YFP, single treatment 60 min, 37°C, maximal BRET increase of dose-response, % of insulin's response taken as 100%, mean ± SD of four independent experiments in triplicate): 13 ± 1^c % | BRET, % of the maximal response of insulin, Average ([4]; peptide 0.001 mg/ml, 37°C): 10.7 | BRET, % of the maximal response of insulin, Average ([4]; peptide 0.005 mg/ml, 37°C): 9.6 | BRET, % of the maximal response of insulin, Average ([4]; peptide 0.01 mg/ml, 37°C): 15.8 | BRET, % of the maximal response of insulin, Average ([4]; peptide 0.05 mg/ml, 37°C): 14.2 | BRET, % of the maximal response of insulin, Average ([4]; peptide 0.1 mg/ml, 37°C): 10.1 | BRET, % of the maximal response of insulin, Average ([4]; peptide 0.5 mg/ml, 37°C): 15.2 | BRET, % of the maximal response of insulin, Average ([4]; peptide 1 mg/ml, 37°C): 10.9
Substance: MPVQA [Peptide P4]
insulin-induced BRET, % of insulin's response in the vehicle, Average ([1]; Average of Experiments 1-7, 1 μM insulin + 0.1 mg/ml peptide, HEK293, minimal data set for Figure 2): 113.5 | insulin-induced BRET, % of insulin's response in the vehicle ([1]; Experiment 1, 1 μM insulin + 0.1 mg/ml peptide, HEK293, minimal data set for Figure 2): 76.2 | insulin-induced BRET, % of insulin's response in the vehicle ([1]; Experiment 2, 1 μM insulin + 0.1 mg/ml peptide, HEK293, minimal data set for Figure 2): 79.6 | insulin-induced BRET, % of insulin's response in the vehicle ([1]; Experiment 3, 1 μM insulin + 0.1 mg/ml peptide, HEK293, minimal data set for Figure 2): 121.9 | insulin-induced BRET, % of insulin's response in the vehicle ([1]; Experiment 4, 1 μM insulin + 0.1 mg/ml peptide, HEK293, minimal data set for Figure 2): 113.1 | insulin-induced BRET, % of insulin's response in the vehicle ([1]; Experiment 5, 1 μM insulin + 0.1 mg/ml peptide, HEK293, minimal data set for Figure 2): 93.8 | insulin-induced BRET, % of insulin's response in the vehicle ([1]; Experiment 6, 1 μM insulin + 0.1 mg/ml peptide, HEK293, minimal data set for Figure 2): 168.9 | insulin-induced BRET, % of insulin's response in the vehicle ([1]; Experiment 7, 1 μM insulin + 0.1 mg/ml peptide, HEK293, minimal data set for Figure 2): 141.2 | % of maximal BRET (insulin-induced) ([1]; HEK293 cells, 1 μM insulin + 0.1 mg/ml peptide, 1 hour, 37°C, % of insulin's response in the vehicle taken as 100%, mean ± SD of five to seven independent experiments in triplicate): 114 ± 13^a % | profile on insulin-dependent BRET response in combined treatment (in words) ([1]; HEK293 cells, 0.1 mg/ml peptide + 1 μM insulin, compared to insulin alone (Vehicle)): non-efficient | IR phosphorylation, single treatment (in words) [2]: led to IR and AKT phosphorylation | AKT phosphorylation, single treatment (in words) [3]: led to IR and AKT phosphorylation | BRET increase in single treatment (in words) ([4]; HEK293 cells, peptides applied alone): did not promote any significant BRET increase | glucose uptake, specific luminescence signal, Average (HepG2 cells; Average of Experiments 1-5, HepG2, 0.1 mg/ml peptide or 1 μM insulin, minimal data set for Figure 5): 1978100 | % of glucose uptake (HepG2 cells; HepG2 cells, 0.1 mg/ml peptide or 1 μM insulin, % of insulin's response taken as 100%, mean ± SD of five independent experiments in triplicate): 78 ± 18^b %
